# Test results as given in patent publication US7875634B2, “Cyano anthranilamide insecticides” (E. I. du Pont de Nemours and Company, priority 2003, dated 2011).
# Legend:
# Assay type in all cases: in vivo
# [1] = tested on: green peach aphid (Myzus persicae); experiment: Test H: foliar movement of compound through the plant, green peach aphid mortality (radish); settings: applied at 1000 ppm, 20 microliters by pipet to two leaves of radish plant; infested after 2 days, held 8 additional days; insects fed on untreated plant tissues
# Source text: (§1) For evaluating movement of compounds in plants and control of green peach aphid (Myzus persicae) and potato leafhopper (Empoasca fabae) after foliar movement of compound through the plant, the test unit consisted of a small open container with a 12-15-day-old radish plant (for green peach aphid test) or 5-6 day old Longio bean plant (for potato leafhopper test).
# (§2) Test compounds were formulated using a solution containing 10% acetone, 90% water and 600 ppm X-77® Spreader Lo-Foam Formula non-ionic surfactant containing alkylarylpolyoxyethylene, free fatty acids, glycols and isopropanol (Loveland Industries, Inc.). The formulated compounds were applied in 20 microliters by pipet to two larger photosynthetically active leaves. All experimental compounds in this screen were applied at 1000 ppm, and the tests were replicated three times. After applying the formulated test compounds, the soil of each test unit was covered with a layer of sand and each test unit was allowed to dry for 1 hr and then a black, screened cap was placed on top. The test units were held in a growth chamber at about 20° C. and 50-70% relative humidity.
# (§3) After 2 days, the treated leaves were covered on all sides with a fine plastic mesh, but with the leaf petiole intact and still attached to the plant to allow normal vascular movement and photosynthesis. The plants were then infested with 20-30 aphids (radish) or 20 leafhoppers (bean) and held in the growth chamber for 8 additional days. Each test unit was then visually assessed for mortality of the insects, which had contacted and fed on the untreated plant tissues.
# [2] = tested on: cotton melon aphid (Aphis gossypii); experiment: Test E: control of cotton melon aphid through contact and/or systemic means, spray on cotton; settings: 144 h
# Source text: For evaluating control of cotton melon aphid (Aphis gossypii) through contact and/or systemic means, the test unit consisted of a small open container with a 6-7-day-old cotton plant inside. This was pre-infested with 30-40 insects on a piece of leaf according to the cut-leaf method described for Test C, and the soil of the test unit was covered with a layer of sand.
# Test compounds were formulated and sprayed at 250 ppm as described for Test D. The applications were replicated three times. After spraying, the test units were maintained in a growth chamber and then visually rated as described for Test D.
# [3] = tested on: potato leafhopper (Empoasca fabae); experiment: Test H: foliar movement of compound through the plant, potato leafhopper mortality (bean); settings: applied at 1000 ppm, 20 microliters by pipet to two leaves of bean plant; infested after 2 days, held 8 additional days; insects fed on untreated plant tissues
# Source text: as §1, §2, §3
# [4] = tested on: potato leafhopper (Empoasca fabae); experiment: Test 1 (I): xylem movement from soil application, potato leafhopper mortality (bean); settings: for % PLH M (potato leafhopper mortality): 1000 ppm, 1 mL to soil at base of bean plant, infested after 2 days, held 5 additional days
# Source text: (§4) For evaluating movement of compounds in plants and control of green peach aphid (Myzus persicae) and potato leafhopper (Empoasca fabae) after xylem movement of compound from soil application up through roots into foliage, the test unit consisted of a small open container with a 12-15-day-old radish plant (for green peach aphid test) or 5-6-day-old Longio bean plant (for potato leafhopper test).
# as §2, with “in 1 mL of solution” for “in 20 microliters”, “to the soil at the base of the plant.” for “to two larger photosynthetically active leaves.”, “compounds, each test unit was allowed to dry for 1 h. The” for “compounds, the”, “sand” for “sand and each test unit was allowed to dry for 1 hr”
# (§5) After 2 days, the plants were then infested with 20-30 aphids (radish) or 20 leafhoppers (bean) and held in the growth chamber for 5 additional days. Each test unit was then visually assessed for mortality of the insects, which had contacted and fed on the untreated plant foliage.
# [5] = tested on: potato leafhopper (Empoasca fabae Harris); experiment: Test D: control of potato leafhopper through contact and/or systemic means, spray on bean plant; settings: 144 h
# Protocol: For evaluating control of potato leafhopper (Empoasca fabae Harris) through contact and/or systemic means, the test unit consisted of a small open container with a 5-6 day old Longio bean plant (primary leaves emerged) inside. White sand was added to the top of the soil and one of the primary leaves was excised prior to application. Test compounds were formulated and sprayed at 250 ppm and replicated three times as described for Test C. After spraying, the test units were allowed to dry for 1 hour before they were post-infested with 5 potato leafhoppers (18 to 21 day old adults). A black, screened cap was placed on the top of the cylinder. The test units were held for 6 days in a growth chamber at 19-21° C. and 50-70% relative humidity. Each test unit was then visually assessed for insect mortality.
# [6] = tested on: corn planthopper (Peregrinus maidis); experiment: Test F: control of corn planthopper through contact and/or systemic means, spray on corn; settings: 144 h
# Protocol: For evaluating control of corn planthopper (Peregrinus maidis) through contact and/or systemic means, the test unit consisted of a small open container with a 3-4 day old corn (maize) plant (spike) inside. White sand was added to the top of the soil prior to application. Test compounds were formulated and sprayed at 250 ppm and replicated three times as described for Test C. After spraying, the test units were allowed to dry for 1 hour before they were post-infested with 10-20 corn planthoppers (18- to 20-day old nymphs) by sprinkling them onto the sand with a salt shaker. A black, screened cap was placed on the top of the cylinder. The test units were held for 6 days in a growth chamber at 19-21° C. and 50-70% relative humidity. Each test unit was then visually assessed for insect mortality.
# [7] = tested on: green peach aphid (Myzus persicae); experiment: Test C: control of green peach aphid through contact and/or systemic means, spray on radish; settings: 144 h
# Source text: For evaluating control of green peach aphid (Myzus persicae) through contact and/or systemic means, the test unit consisted of a small open container with a 12-15-day-old radish plant inside. This was pre-infested by placing on a leaf of the test plant 30-40 aphids on a piece of leaf excised from a culture plant (cut-leaf method). The larvae moved onto the test plant as the leaf piece desiccated. After pre-infestation, the soil of the test unit was covered with a layer of sand.
# Test compounds were formulated using a solution containing 10% acetone, 90% water and 300 ppm X-77® Spreader Lo-Foam Formula non-ionic surfactant containing alkylarylpolyoxyethylene, free fatty acids, glycols and isopropanol (Loveland Industries, Inc.). The formulated compounds were applied in 1 mL of liquid through a SUJ2 atomizer nozzle with ⅛ JJ custom body (Spraying Systems Co.) positioned 1.27 cm (0.5 inches) above the top of each test unit. All experimental compounds in this screen were sprayed at 250 ppm, replicated three times. After spraying of the formulated test compound, each test unit was allowed to dry for 1 hour and then a black, screened cap was placed on top. The test units were held for 6 days in a growth chamber at 19-21° C. and 50-70% relative humidity. Each test unit was then visually assessed for insect mortality.
# [8] = tested on: green peach aphid (Myzus persicae); experiment: Test 1 (I): xylem movement from soil application, green peach aphid mortality (radish); settings: for % GPA M (green peach aphid mortality): 1000 ppm, 1 mL to soil at base of radish plant, infested after 2 days, held 5 additional days
# Source text: as §4
# as §2, with “in 1 mL of solution” for “in 20 microliters”, “to the soil at the base of the plant.” for “to two larger photosynthetically active leaves.”, “compounds, each test unit was allowed to dry for 1 h. The” for “compounds, the”, “sand” for “sand and each test unit was allowed to dry for 1 hr”
# as §5
Structure (SMILES),% GPA M (green peach aphid mortality) [1] [%],% PLH M (potato leafhopper mortality) [3] [%],% PLH M (potato leafhopper mortality) [4] [%],% GPA M (green peach aphid mortality) [8] [%],further results
Cc1cc(C#N)cc(C(N)=O)c1NC(=O)c1cc(C(F)(F)F)nn1-c1ncccc1Cl [Compound 1],87,58,,,"mortality at 250 ppm [2]: ≥ 80%; mortality at 1000 ppm ([4]; Empoasca fabae, soil, read-out: % PLH M (potato leafhopper mortality)): 100%; mortality at 250 ppm [5]: ≥ 80%; mortality at 250 ppm [6]: ≥ 80%; mortality at 250 ppm [7]: ≥ 80%; mortality at 1000 ppm ([8]; Myzus persicae, soil, read-out: % GPA M (green peach aphid mortality)): 64%"
CNC(=O)c1cc(C#N)cc(C)c1NC(=O)c1cc(C(F)(F)F)nn1-c1ncccc1Cl [Compound 2],,,56,64,
CNC(=O)c1cc(C#N)cc(C)c1NC(=O)c1cc(Cl)nn1-c1ncccc1Cl [Compound 3],81,96,,,
Cc1cc(C#N)cc(C(N)=O)c1NC(=O)c1cc(Cl)nn1-c1ncccc1Cl [Compound 4],78,93,,,
CNC(=O)c1cc(C#N)cc(C)c1NC(=O)c1cc(Br)nn1-c1ncccc1Cl [Compound 5],94,96,95,40,
Cc1cc(C#N)cc(C(N)=O)c1NC(=O)c1cc(Br)nn1-c1ncccc1Cl [Compound 6],100,77,100,59,
Cc1cc(C#N)cc(C(=O)NCC#N)c1NC(=O)c1cc(Cl)nn1-c1ncccc1Cl [Compound 26],67,73,,,
Cc1cc(C#N)cc(C(=O)NCC#N)c1NC(=O)c1cc(Br)nn1-c1ncccc1Cl [Compound 27],57,13,,,
